These results are taken from US20230091225A1, “Bifunctional chimeric heterocyclic compounds for targeted degradation of androgen receptors and use thereof” (HINOVA PHARMACEUTICALS INC., priority 2019, published 2023).

What is called DC50 is the midpoint of the concentration-degradation curve. By Dmax is commonly meant the greatest extent of degradation seen.

Like-named read-outs stand apart in the source and are kept apart here. Where only a bound is given, the exact number is not on record here.

For this experiment, the target named is T1, androgen receptor (AR) (Homo sapiens, UniProt P10275).
T1 sequence (P10275 1-920): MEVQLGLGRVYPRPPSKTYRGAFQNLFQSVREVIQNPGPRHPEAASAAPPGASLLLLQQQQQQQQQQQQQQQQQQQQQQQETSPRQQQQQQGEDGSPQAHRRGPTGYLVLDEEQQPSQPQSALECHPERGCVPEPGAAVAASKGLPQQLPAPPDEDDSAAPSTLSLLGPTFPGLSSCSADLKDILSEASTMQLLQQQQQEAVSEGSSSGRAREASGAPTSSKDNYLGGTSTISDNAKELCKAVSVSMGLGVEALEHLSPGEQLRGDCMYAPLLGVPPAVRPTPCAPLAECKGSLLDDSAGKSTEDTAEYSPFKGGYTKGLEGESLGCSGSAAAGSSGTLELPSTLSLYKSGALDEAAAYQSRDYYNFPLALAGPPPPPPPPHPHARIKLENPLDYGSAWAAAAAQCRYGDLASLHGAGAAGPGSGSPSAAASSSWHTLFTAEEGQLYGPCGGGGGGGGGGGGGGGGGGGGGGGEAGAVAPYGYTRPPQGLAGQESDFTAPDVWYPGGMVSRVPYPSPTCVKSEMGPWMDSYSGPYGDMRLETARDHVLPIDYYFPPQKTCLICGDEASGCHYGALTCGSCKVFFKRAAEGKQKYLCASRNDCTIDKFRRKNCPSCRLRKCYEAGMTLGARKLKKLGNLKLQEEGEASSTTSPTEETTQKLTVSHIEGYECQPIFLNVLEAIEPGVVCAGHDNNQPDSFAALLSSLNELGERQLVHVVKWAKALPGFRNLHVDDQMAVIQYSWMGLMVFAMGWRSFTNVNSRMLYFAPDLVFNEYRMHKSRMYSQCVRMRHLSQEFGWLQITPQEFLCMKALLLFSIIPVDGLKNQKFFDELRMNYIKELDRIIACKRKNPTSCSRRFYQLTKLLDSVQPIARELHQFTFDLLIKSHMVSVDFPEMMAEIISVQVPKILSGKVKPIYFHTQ
Briefly: Degradation of androgen receptor (AR) protein in VCaP cells by ELISA. The format is cell-based. To be noted: for DC50: read-out: DC50; for Dmax: VCaP; for inhibition at 0.1 µM: percentage of degraded AR at 100 nM, read-out: % degradation. On the technique in general: ELISA stands for enzyme-linked immunosorbent assay.

The mark [1] stands for this setting: AR degradation, VCaP cells, 16 h, ELISA, Table 3-1.
The mark [2] stands for this setting: AR degradation, VCaP cells, 16 h, ELISA, Table 3-1, read-out: Dmax (%).

With “4-((1r,3r)-3-(2-((1r,4r)-4-(4-(2,6-dioxopiperidin-3-yl)-1,3-dioxoisoindolin-5-yl)piperazin-1-2-methoxybenzonitrile [Compound 400]”, the “Dmax (%)” value was “++++ (key: A: >80%; B: 79%-50%; C: 49%-25%; D: <25%)” and the DC50 was less than 10 nM.

For the compound `CC1(C)[C@H](Oc2ccc(C#N)c(Cl)c2)C(C)(C)[C@H]1N1Cc2nc(C#CC3CCC(N4CC5CC4CN5c4ccc5c(c4)C(=O)N(C4CCC(=O)NC4=O)C5=O)CC3)ccc2C1=O` (single isomer, unassigned) [Compound 352, 2-Chloro-4-((1r,3r)-3-(2-((4-(5-(2-(2,6-dioxopiperidin-3-yl)-1,3-dioxoisoindolin-5-yl)-2,5-diazabicyclo[2.2.1]heptan-2-yl)cyclohexyl)ethynyl)-5-oxo-5,7-dihydro-6H-pyrrolo[3,4-b]pyridin-6-yl)-2,2,4,4-tetramethylcyclobutoxy) benzonitrile], the DC50 under setting [1] was greater than 300 nM. In addition, the Dmax under setting [2] lay within 40 to 60%. `CC1(C)[C@H](Oc2ccc(C#N)c(Cl)c2)C(C)(C)[C@H]1N1Cc2nc(C#CC3CCC(N4CC5CC4CN5c4ccc5c(c4)C(=O)N(C4CCC(=O)NC4=O)C5=O)CC3)ccc2C1=O` (single isomer, unassigned) [Compound 353, 2-Chloro-4-((1r,3r)-3-(2-((4-(5-(2-(2,6-dioxopiperidin-3-yl)-1,3-dioxoisoindolin-5-yl)-2,5-diazabicyclo[2.2.1]heptan-2-yl)cyclohexyl)ethynyl)-5-oxo-5,7-dihydro-6H-pyrrolo[3,4-b]pyridin-6-yl)-2,2,4,4-tetramethylcyclobutoxy) benzonitrile]: the DC50 under setting [1] is greater than 300 nM. Turning to `CC(=O)O[C@@H]1CC(C(=O)N[C@@H](C)c2ccc(-c3scnc3C)cc2)N(C(=O)[C@@H](NC(=O)COCCN2CCN(c3ccc4c(c3)CN([C@H]3C(C)(C)[C@H](Oc5ccc(C#N)c(Cl)c5)C3(C)C)C4=O)CC2)C(C)(C)C)C1` (stereo partly drawn) [Compound 2, (3R,5S)-1-((S)-2-(2-(2-(4-(2-((1R,3R)-3-(3-chloro-4-cyanophenoxy)-2,2,4,4-tetramethylcyclobutyl)-1-oxoisoindolin-5-yl)piperazin-1-yl)ethoxy)acetylamino)-3,3-dimethylbutyryl)-5-(((S)-1-(4-(4-methylthiazol-5-yl)phenyl)ethyl)carbamoyl) pyrrolidin-3-yl acetate], where the note is “VCaP cells, 16 h, ELISA”, the inhibition at 0.1 µM is less than 25%. With `CC(=O)O[C@@H]1C[C@H](C(=O)NC2(c3ccc(-c4scnc4C)cc3)CC2)N(C(=O)[C@@H](NC(=O)COCCCCC#Cc2ccc(C(=O)N[C@H]3C(C)(C)[C@H](Oc4ccc(C#N)c(Br)c4)C3(C)C)cc2)C(C)(C)C)C1` [Compound 8, (3R,5R)-1-((S)-2-(2-((6-(4-(((1R,3R)-3-(3-bromo-4-cyanophenoxy)-2,2,4,4-tetramethylcyclobutyl)carbamoyl)phenyl)hex-5-yn-1-yl)oxy)acetylamino)-3,3-dimethylbutyryl)-5-((1-(4-(4-methylthiazol-5-yl)phenyl)cyclopropyl)carbamoyl) pyrrolidin-3-yl acetate], for the setting “VCaP cells, 16 h, ELISA”, the inhibition at 0.1 µM fell in the range of 25 to 49%.

On to `Cc1ncsc1-c1ccc([C@H](C)NC(=O)[C@@H]2C[C@@H](O)CN2C(=O)[C@@H](NC(=O)COCCCCC#Cc2ccc3c(n2)CN([C@H]2C(C)(C)[C@H](Oc4ccc(C#N)c(Cl)c4)C2(C)C)C3=O)C(C)(C)C)cc1` [Compound 36, (2S,4R)-1-((S)-2-(2-((6-(6-((1r,3r)-3-(3-chloro-4-cyanophenoxy)-2,2,4,4-tetramethylcyclobutyl)-5-oxo-6,7-dihydro-5H-pyrrolo[3,4-b]pyridin-2-yl)hex-5-yn-1-yl)oxy)acetylamino)-3,3-dimethylbutyryl)-4-hydroxy-N-((S)-1-(4-(4-methylthiazol-5-yl)phenyl)ethyl)pyrrolidine-2-carboxamide], for which the inhibition at 0.1 µM (VCaP cells, 16 h, ELISA) lay in the range of 25 to 49%. Turning to `N#Cc1ccc(O[C@H]2CC[C@H](NC(=O)c3ccc(N4CCC5(CC4)CN(CC4CCN(c6cc7c(cc6F)C(=O)N(C6CCC(=O)NC6=O)C7=O)CC4)C5)nn3)CC2)cc1Cl` (stereo partly shown) [Compound 75], under setting [1], the half-maximal degradation concentration (DC50) was less than 10 nM. The Dmax under setting [2] was greater than 80%. Take `N#Cc1ccc(O[C@H]2CC[C@H](NC(=O)c3cnc(N4CCC5(CC4)CN(CC4CCN(c6cc7c(cc6F)C(=O)N(C6CCC(=O)NC6=O)C7=O)CC4)C5)cn3)CC2)cc1Cl` (stereo partly shown) [Compound 76]: under setting [1], the DC50 was less than 10 nM. Further, under setting [2], the Dmax is greater than 80%. On to `N#Cc1ccc(O[C@H]2CC[C@H](NC(=O)c3ccc(N4CCC(N5CC6(CCN(c7cc8c(cc7F)C(=O)N(C7CCC(=O)NC7=O)C8=O)CC6)C5)CC4)nc3)CC2)cc1Cl` (stereo partly shown) [Compound 77, N-((1r,4r)-4-(3-chloro-4-cyanophenoxy)cyclohexyl)-6-(4-(7-(2-(2,6-dioxopiperidin-3-yl)-6-fluoro-1,3-dioxoisoindolin-5-yl)-2,7-diazaspiro[3.5]nonan-2-yl)piperidin-1-yl)nicotinamide], for which, under setting [1], the DC50 is less than 10 nM. In addition, under setting [2], the Dmax is greater than 80%. Turning to `N#Cc1ccc(O[C@H]2CC[C@H](NC(=O)c3ccc(N4CCC(N5CC6(CCN(c7ccc8c(c7)C(=O)N(C7CCC(=O)NC7=O)C8=O)CC6)C5)CC4)nn3)CC2)cc1Cl` (stereo partly shown) [Compound 78], the DC50 under setting [1] is less than 10 nM. Besides, under setting [2], the Dmax is greater than 80%.

In the case of `N#Cc1ccc(O[C@H]2CC[C@H](NC(=O)c3ccc(N4CCC(N5CC6(CCN(c7cc8c(cc7F)C(=O)N(C7CCC(=O)NC7=O)C8=O)CC6)C5)CC4)nn3)CC2)cc1C(F)(F)F` (stereo partly shown) [Compound 79, N-((1r,4r)-4-(4-cyano-3-(trifluoromethyl)phenoxy)cyclohexyl)-6-(4-(7-(2-(2,6-dioxopiperidin-3-yl)-6-fluoro-1,3-dioxoisoindolin-5-yl)-2,7-diazaspiro[3.5]nonan-2-yl)piperidin-1-yl)pyridazine-3-formamide], the DC50 under setting [1] lay in the range of 10 to 100 nM. The Dmax under setting [2] was greater than 80%. In the case of `CC1(C)C(NC(=O)c2ccc(N3CCC(N4CC5(CCN(c6cc7c(cc6F)C(=O)N(C6CCC(=O)NC6=O)C7=O)CC5)C4)CC3)nn2)C(C)(C)C1Oc1ccc(C#N)c(Cl)c1` (stereo not shown) [Compound 80, N-((1s,3s)-3-(3-chloro-4-cyanophenoxy)-2,2,4,4-tetramethylcyclobutyl)-6-(4-(7-(2-(2,6-dioxopiperidin-3-yl)-6-fluoro-1,3-dioxoisoindolin-5-yl)-2,7-diazaspiro [3.5]nonan-2-yl)piperidin-1-yl)pyridazine-3-formamide], the “Dmax (%)” value was “+++ (key: ++++: >80%; +++: 80%-60%; ++: 60%-40%; +: <40%)” and the DC50 was in the range of 10 to 100 nM. Consider `N#Cc1ccc(O[C@H]2CC[C@H](NC(=O)c3ccc(N4CC5(CCN(C6CCN(c7cc8c(cc7F)C(=O)N(C7CCC(=O)NC7=O)C8=O)CC6)C5)C4)nn3)CC2)cc1Cl` (stereo partly shown) [Compound 81, N-((1r,4r)-4-(3-chloro-4-cyanophenoxy)cyclohexyl)-6-(6-(1-(2-(2,6-dioxopiperidin-3-yl)-6-fluoro-1,3-dioxoisoindolin-5-yl)piperidine-4-yl)-2,6-diazaspiro[3.4]octan-2-yl)pyridazine-3-formamide], for which the Dmax is greater than 80%. Under setting [1], the DC50 is less than 10 nM.

Regarding `N#Cc1ccc(O[C@H]2CC[C@H](NC(=O)c3cnc(N4CC5(CCN(C6CCN(c7cc8c(cc7F)C(=O)N(C7CCC(=O)NC7=O)C8=O)CC6)C5)C4)cn3)CC2)cc1Cl` (stereo partly shown) [Compound 82, N-((1r,4r)-4-(3-chloro-4-cyanophenoxy)cyclohexyl)-5-(6-(1-(2-(2,6-dioxopiperidin-3-yl)-6-fluoro-1,3-dioxoisoindolin-5-yl)piperidine-4-yl)-2,6-diazaspiro [3.4]octane-2-yl)pyrazine-2-carboxamide], the Dmax was greater than 80%. Under setting [1], the DC50 was less than 10 nM. For the compound `N#Cc1ccc(O[C@H]2CC[C@H](NC(=O)c3nnc(N4CCC(N5CCC6(CC5)CN(c5cc7c(cc5F)C(=O)N(C5CCC(=O)NC5=O)C7=O)C6)CC4)s3)CC2)cc1Cl` (stereo partly shown) [Compound 83], the Dmax was less than 40%. In addition, under setting [1], the DC50 is greater than 300 nM. On to `N#Cc1ccc(OC2CCC(NC(=O)c3ncn(C4CCC(CN5CCC6(CC5)CN(c5ccc7c(c5)C(=O)N(C5CCC(=O)NC5=O)C7=O)C6)CC4)n3)CC2)cc1Cl` [Compound 84, N-((1r,4R)-4-(3-chloro-4-cyanophenoxy)cyclohexyl)-1-(1r,4R)-4-((2-(2-(2,6-dioxopiperidin-3-yl)-1,3-dioxoisoindolin-5-yl)-2,7-diazaspiro[3.5]nonan-7-yl)methyl)cyclohexyl)-1H-1,2,4-triazole-3-carboxamide], for which, under setting [1], the “Dmax (%)” value was “++++ (>80%)” and the DC50 was less than 10 nM.
